Measured values as given in article PMC12186843, “Targeting GABAergic Hypofunction Associated with Schizophrenia: Identification of α1β2γ2GABA‑A Receptor Ligands with Neuroprotective and Antipsychotic Properties” (ACS Chemical Neuroscience, 2025).

Columns and labels:
[1] = rats, i.p., 3 mg/kg, ref Mordyl, B. et al. J. Med. Chem. 2024, 67 (24), 21859–21889, cited from earlier work
SH-SY5Y cells = experiment: Intracellular calcium concentration after 6-OHDA (Fluo-4); format: cell-based, human; details: 50 μM pretreatment 1 h, then 6-OHDA 250 μM 1 h
Experimental: 7 (A). Effect of 6-Hydroxydopamine (6-OHDA) on intracellular calcium concentration [Ca^2+] determined by Fluo-4 AM. After pretreatment with tested compounds (50 μM) or vehicle (0.5% DMSO, v/v) for 1 h, the cells were incubated with 6-Hydroxydopamine (6-OHDA, 250 μM) for 1 h. 6-OHDA control: cells treated with 250 μM of 6-OHDA. […]. DMSO control: cells treated with 0.5% DMSO only. Data are presented as the mean ± SD from 2–3 independent experiments. Experiments were carried on with ImageXpress Micro XLS (Molecular Devices). (B) The level of ROS generation was determined by Cell ROX dye. After pretreatment with tested compounds (50 μM) or vehicle (0.5% DMSO, v/v) for 1 h, the cells were incubated with hydrogen peroxide (H2O2, 300 μM) for 1 h. H2O2 control: cells treated with H2O2 (300 μM). DMSO control: cells treated with 0.5% DMSO only. Data are presented as the mean ± SD from 2–3 independent experiments. Experiments were carried on with the ImageXpress Micro XLS (Molecular Devices).
The SH-SY5Y human neuroblastoma cell line was maintained according to established protocols. The cells, obtained from the American Type Culture Collection (ATCC), were cultured in Dulbecco’s Modified Eagle’s Medium (DMEM, high glucose; Thermo Fisher), supplemented with 10% fetal bovine serum (Thermo Fisher), 100 IU/ml penicillin (Merck), and 100 μg/mL streptomycin (Merck). They were grown in 75 cm^2 flasks (Nunc) at 37 °C in a humidified atmosphere containing 5% CO2. For compound evaluation, SH-SY5Y cells were plated in 96-well plates (Falcon) at a density of 2 × 10^4 cells per well. The cells were allowed to adhere and grow for 24 h in an incubator set to 37 °C and 5% CO2 before starting the experiments. Stock solutions of both test and reference compounds were prepared at a concentration of 10^–2 M. A minimum of 1 mg of each compound was dissolved in dimethyl sulfoxide (DMSO). Serial dilutions were made in DMSO, then further diluted in PBS, mixed, and added to the cell culture medium.
The intracellular Ca^2+ levels were assessed using a homogeneous cell-based assay with the Fluo-4 Direct Calcium Assay Kit (Thermo Fisher). Following incubation with the tested compounds, the supernatant was discarded, and the cells were incubated with 1 μM Fluo-4/AM in FluoroBrite DMEM (Thermo Fisher) for 1 h at 37 °C. The results were expressed as a percentage relative to the control (DMSO). Fluorescence intensity was recorded using the ImageXpress Micro XLS system (Molecular Devices).

PAMPA permeability assay = format: in vitro ADME; details: pH 7.4, PAMPA, PBS pH 7.4, 100 μM, zolpidem tested as tartrate, read-out: Permeability Pe ± SD
Experimental: PAMPA. The precoated PAMPA Plate System Gentest, obtained from Corning (Tewksbury, MA, USA), was used for the permeability study. The system includes a 96-well receiver filter plate precoated with structured phospholipid layers and a matching donor microplate. Stock solutions of the test compounds and reference drugs were prepared in PBS buffer (pH 7.4) at a final concentration of 100 μM. Each compound solution (200 μL) was added to the donor wells and incubated at room temperature for 5 h. The quantity of molecules that penetrated from the donor wells to the acceptor wells through the phospholipid membrane was determined using UPLC-MS spectrometry (Waters ACQUITY TQD system with the TQ Detector, Waters, Milford, USA) with an internal standard. Permeability coefficients (Pe, cm/s) were calculated according to the formula provided by the manufacturer.

Cc1ccc2nc(-c3ccc(F)cc3)c(CC(=O)N3CCCC3)n2c1.O=C(O)C(O)C(O)C(=O)O [Compound 17, 2-(4-Fluorophenyl)-6-methyl-3-(2-oxo-2-(pyrrolidin-1-yl)-ethyl)imidazo[1,2-a]pyridin-1-ium 3-carboxy-2,3-dihydroxy-propanoate]
t0.5 Plasma ([1]; n=6, plasma, terminal half life): 249 min
AUC0→t Brain ([1]; n=6, brain): 8229 ng·min/g
Cmax Brain ([1]; n=6, brain): 219.5 ng/g
MRT Brain ([1]; n=6, brain): 102.5 min
tmax Brain ([1]; n=6, brain): 5 min
t0.5 Brain ([1]; n=6, brain, terminal half life): 653.2 min
AUC0→t Plasma ([1]; n=6, plasma): 128271 ng·min/mL
MRT Plasma ([1]; n=6, plasma): 50.9 min
tmax Plasma ([1]; n=6, plasma): 5 min
Reduction of intracellular calcium levels (SH-SY5Y cells): 48%
Papp at 5 h, 100 μM (PAMPA permeability assay): > 4 ×10⁻⁶ cm/s
